Source: PMC3537913 (Clinical cancer research : an official journal of the …, 2012)
Where a name gives a salt, the structure may show the parent alone.

Experiments:
[1] = human, in vivo, po
[2] = once daily by mouth, in the combination
clinical = settings: human, in vivo, po, 50 mg/m2
[3] = in vivo, cited from earlier work
[4] = Sorafenib and sorafenib N-oxide steady-state plasma concentrations, course 1; assay type: in vivo, human; settings: for concentration at 7 day / concentration at 13 day / concentration at 21 day: human, plasma, oral
[5] = Sorafenib first-dose pharmacokinetics in patients; assay type: in vivo, human; settings: for CL/F (apparent oral clearance): first dose (day 1); for Ka: first dose; for Cmax / Tmax / half-life: human, plasma, po
[6] = system: circulating endothelial cells (CECs); assay: Six-color flow cytometry of blood; assay type: in vivo, human; settings: day 21, p = 0.01
[7] = single-agent sorafenib, mean; cited from earlier work
[8] = pediatric phase I single agent study, cited from earlier work
refractory solid tumors = settings: cited from earlier work
[9] = sorafenib 90 mg/m^2 twice daily, n 13, median (range)
[10] = sorafenib 110 mg/m^2 twice daily, n 4, median (range)
[11] = sorafenib 90 mg/m^2 oral, n 11, median (range)
[12] = sorafenib 110 mg/m^2 oral, n 4, median (range)

O=P1(N(CCCl)CCCl)NCCCO1 (stereo not shown) [cyclophosphamide, Cyclophosphamide]
cyclophosphamide absorption rate constant [1]: 0.17 h⁻¹ | cyclophosphamide apparent volume of distribution ([1]; 50 mg/m2): 2.28 L/m^2 | recommended phase II dose, cyclophosphamide [2]: 50 mg/m^2 | published mean AUC at 600 mg/m^2 relative to median AUC of this study (12-fold higher oral dosage, ref 34 versus this study): ~ 11 times | BSA normalized apparent oral clearance in adults (assuming average adult body surface area of 1.73 m^2, from ref 33): 3.57 L/h/m^2 | AUC(0-inf) (clinical): 62.5 µM·h | clearance after intravenous administration in children ([3]; iv): 2.9-4.23 L/h/m^2 | mean apparent oral clearance in adults ([3]; po): 6.18 L/h

CNC(=O)c1cc(Oc2ccc(NC(=O)Nc3ccc(Cl)c(C(F)(F)F)c3)cc2)cc[n+]1[O-] [sorafenib N-oxide]
Sorafenib N-oxide Ctrough Day 7 [4, 9]: 0.50 (0.11 – 4.5) mg/L | Sorafenib N-oxide Ctrough Day 13 [4, 9]: 0.54 (0.17 – 3.4) mg/L | Sorafenib N-oxide Ctrough Day 7 [4, 10]: 0.57 (0.37 – 1.5) mg/L | Sorafenib N-oxide Ctrough Day 13 [4, 10]: 0.37 (0.33 – 0.92) mg/L | Sorafenib N-oxide Ctrough Day 21 [4, 10]: 0.40 (0.20 – 0.78) mg/L

CNC(=O)c1cc(Oc2ccc(NC(=O)Nc3ccc(Cl)c(C(F)(F)F)c3)cc2)ccn1 [sorafenib, Sorafenib tosylate]
CL/F (apparent oral clearance) [5, 11]: 44 mL/min/m^2 | CL/F (apparent oral clearance) [5, 12]: 39 mL/min/m^2 | Ka [5, 11]: 0.10 (0.038 – 0.72) h^−1 | Ka [5, 12]: 0.093 (0.080 – 0.15) h^−1 | Cmax ([5]; 90 mg/m2): 1100 ng/mL | Tmax ([5]; 90 mg/m2): 8.7 h | half-life ([5]; 90 mg/m2): 5.5 h | Cmax ([5]; 110 mg/m2): 1600 ng/mL | Tmax ([5]; 110 mg/m2): 11 h | half-life ([5]; 110 mg/m2): 10 h | concentration at 7 day ([4]; 90 mg/m^2 twice daily): 3500 ng/mL | concentration at 13 day ([4]; 90 mg/m^2 twice daily): 2500 ng/mL | concentration at 21 day ([4]; 90 mg/m^2 twice daily): 4800 ng/mL | concentration at 7 day ([4]; 110 mg/m^2 twice daily): 3000 ng/mL | concentration at 13 day ([4]; 110 mg/m^2 twice daily): 2100 ng/mL | concentration at 21 day ([4]; 110 mg/m^2 twice daily): 1600 ng/mL | correlation of sorafenib steady-state concentrations with CECs [6]: inversely correlated | metabolic conversion to sorafenib N-oxide, adult patients [7]: < 10% | metabolic conversion to sorafenib N-oxide, children with AML [7]: 33% | maximum tolerated dose (MTD) ([8]; twice daily): 200 mg/m^2 | Grade 3 DLTs [8]: elevated lipase, hyponatremia, hand-foot syndrome (HFS), rash, hypertension, and elevated ALT | objective responses [8]: No objective responses were observed

bevacizumab: VEGF-specific recombinant, humanized monoclonal antibody
dose-limiting toxicities (refractory solid tumors; in vivo): no dose-limiting toxicities (DLTs) were observed | objective responses (refractory solid tumors; pediatric phase I, single agent): No objective responses were observed
